Laboratory results as given in paper PMC8268740, “Evaluation of Firefly and Renilla Luciferase Inhibition in Reporter-Gene Assays: A Case of Isoflavonoids” (International Journal of Molecular Sciences, 2021).
Values joined by “and” are separate entries in the source; they are usually repeats but may differ in a detail not shown here. Equal entries are not always repeated. “Also recorded” adds a separate entry of the source. Where two headings read alike, the source gives them in different places.

Tests used:
[1] = biological target: T1, firefly luciferase (FLuc) (Photinus pyralis, UniProt P08659); assay: Cell-lysate (AR-EcoScreen) in vitro firefly luciferase inhibition assay; type: biochemical; conditions: for IC50 / FLuc inhibition (result in words): AR-EcoScreen cell lysate; for inhibition at 1 µM / inhibition at 10 µM / inhibition at 100 µM: read-out: inhibition of FLuc; for FLuc inhibition (result in words): screened at 1, 10, 100 µM
T1 construct: host or cells: AR-EcoScreen (Chinese hamster ovary derived), lysate after dihydrotestosterone induction
Protocol: (§1) Preparation of cell lysates for use in the luciferase inhibition assays was through seeding of 4–7 ×10^6 cells into a 150 cm^2 growth flask (an equivalent surface density to that indicated in OECD TG 458 [10]) for 24 h at 37 °C under 5% CO2. Upon incubation, dihydrotestosterone (Sigma-Aldrich, St. Louis, MO, USA) diluted in DMSO was added at 10 nM final concentration. This was followed by another 24-h incubation, removal of medium, and addition of 9.4 mL reporter lysis buffer (Promega, Madison, WI, USA). The growth flask was then stored at −80 °C until use.
The cell lysate was thawed at room temperature. Stock solutions of the isoflavonoids and positive controls were dissolved in DMSO and 10-fold serially diluted in the cell lysate to the final concentration with 1% DMSO. Twenty microliters of each isoflavonoid in the cell lysate were transferred to 96-well plates in triplicate and incubated for 30 min at room temperature. Then, 30 µL Luciferase Assay Reagent II (contained in the Dual-Luciferase Reporter Assay System; Promega, Madison, WI, USA) was added to each well, and the FLuc luminescence was measured using a microplate reader (Synergy 4 hybrid; BioTek, Winooski, VT, USA). The addition of 30 µL of Stop & Glo Reagent (contained in the Dual-Luciferase Reporter Assay System) followed, and the RLuc luminescence was recorded using the microplate reader (Synergy 4 hybrid; BioTek, Winooski, VT, USA).
The data from the in vitro luciferase inhibition assays in the AR-EcoScreen cell lysate were processed by first subtracting the background value (i.e., reporter lysis buffer alone) and then normalization to the vehicle control (1% DMSO), and are expressed as means ± standard deviation of three independent repeats carried out as technical triplicates. […] Statistical significance as compared to the vehicle control, considered: *, p ≤ 0.05; **, p ≤ 0.01; and ****, p ≤ 0.0001, using one-way ANOVA, followed by post-hoc Dunnett’s tests.

[2] = biological target: T2, Renilla luciferase (RLuc) (Renilla reniformis, UniProt P27652); assay: Cell-lysate (AR-EcoScreen) in vitro Renilla luciferase inhibition assay; type: biochemical
T2 construct: host or cells: AR-EcoScreen (Chinese hamster ovary derived), lysate
T2 sequence (P27652 1-311): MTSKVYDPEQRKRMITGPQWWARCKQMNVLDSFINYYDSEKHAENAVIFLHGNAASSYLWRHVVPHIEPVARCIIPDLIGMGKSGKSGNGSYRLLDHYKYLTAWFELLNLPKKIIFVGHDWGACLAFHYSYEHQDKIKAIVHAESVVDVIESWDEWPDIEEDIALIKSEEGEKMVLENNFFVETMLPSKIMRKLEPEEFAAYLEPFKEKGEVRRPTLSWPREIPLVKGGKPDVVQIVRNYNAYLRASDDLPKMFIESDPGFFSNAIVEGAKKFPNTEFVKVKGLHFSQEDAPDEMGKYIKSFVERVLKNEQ
Protocol: as §1
The cell lysate was thawed at room temperature. Stock solutions of the isoflavonoids and positive controls were dissolved in DMSO and 10-fold serially diluted in the cell lysate to the final concentration with 1% DMSO. […] Then, 30 µL Luciferase Assay Reagent II (contained in the Dual-Luciferase Reporter Assay System; Promega, Madison, WI, USA) was added to each well, and the FLuc luminescence was measured using a microplate reader (Synergy 4 hybrid; BioTek, Winooski, VT, USA). The addition of 30 µL of Stop & Glo Reagent (contained in the Dual-Luciferase Reporter Assay System) followed, and the RLuc luminescence was recorded using the microplate reader (Synergy 4 hybrid; BioTek, Winooski, VT, USA). […]

RLuc = conditions: read-out: IC50 RLuc inhibition; in the presence of 10 µM coelenterazine; cited from earlier work
isolated FLuc = conditions: cited from earlier work
[3] = read-out: IC50 firefly luciferase inhibition
[4] = IC50 firefly luciferase inhibition

T1 sequence (P08659 whole entry): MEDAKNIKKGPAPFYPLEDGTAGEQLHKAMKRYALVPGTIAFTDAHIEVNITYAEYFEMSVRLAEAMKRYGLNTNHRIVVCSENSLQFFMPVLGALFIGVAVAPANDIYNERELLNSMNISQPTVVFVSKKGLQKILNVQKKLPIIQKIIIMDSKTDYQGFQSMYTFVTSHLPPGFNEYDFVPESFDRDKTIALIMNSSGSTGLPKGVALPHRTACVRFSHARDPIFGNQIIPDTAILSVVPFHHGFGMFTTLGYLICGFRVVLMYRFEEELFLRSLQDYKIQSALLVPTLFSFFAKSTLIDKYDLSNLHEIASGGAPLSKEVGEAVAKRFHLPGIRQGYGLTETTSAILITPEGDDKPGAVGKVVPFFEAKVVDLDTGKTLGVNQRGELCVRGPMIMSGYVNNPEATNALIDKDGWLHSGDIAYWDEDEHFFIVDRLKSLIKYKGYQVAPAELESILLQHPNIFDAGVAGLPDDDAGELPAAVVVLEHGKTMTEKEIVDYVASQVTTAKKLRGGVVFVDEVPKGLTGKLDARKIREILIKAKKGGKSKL

With COc1ccc(-c2coc3cc(O)cc(O)c3c2=O)cc1 [Biochanin A, biochanin A] the IC50 [1, 3] was 0.636 µM and 0.64 µM and the inhibition at 1 µM [1] was 62.4%.

For COc1ccc(-c2coc3cc(O)ccc3c2=O)cc1O [Calycosin], the IC50 [1, 4] was 4.96 µM and the inhibition at 10 µM [1] was 66.2%.

Molecule O=c1c(-c2ccc(O)cc2)coc2cc(O)ccc12 [Daidzein] has an IC50 [1, 4] of 51.4 µM and an inhibition at 100 µM [1] of 60.9%.

For O=c1c(-c2ccc(O)cc2)coc2cc(O[C@@H]3O[C@H](CO)[C@@H](O)[C@H](O)[C@H]3O)ccc12 [Daidzin, daidzin], the “FLuc inhibition (result in words)” value [1] was “inactive; also recorded: did not show inhibition of FLuc at all”.

COc1ccc(-c2coc3cc(O)ccc3c2=O)cc1 [Formononetin, formononetin] showed an IC50 [1, 3] of 3.88 µM and an inhibition at 1 µM [1] of 32.4%.

In the case of O=c1c(-c2ccc(O)cc2)coc2cc(O)cc(O)c12 [Genistein, genistein], the IC50 [1, 4] is reported as 36.9 µM and the inhibition at 100 µM [1] is reported as 71.2%.

With O=c1c(-c2ccc(O)cc2)coc2cc(O[C@@H]3O[C@H](CO)[C@@H](O)[C@H](O)[C@H]3O)cc(O)c12 [Genistin, genistin] the “FLuc inhibition (result in words)” value [1] was “inactive” and the “FLuc inhibition (result in words)” value ([1]; listed as genistin) was “did not show inhibition of FLuc at all”.

For COc1cc2c(=O)c(-c3ccc(O)cc3)coc2cc1O [Glycitein], the IC50 [1, 4] was 26.4 µM and the inhibition at 10 µM [1] was 30.1%.

In the case of COc1cc2c(=O)c(-c3ccc(O)cc3)coc2cc1O[C@@H]1O[C@H](CO)[C@@H](O)[C@H](O)[C@H]1O [Glycitin, glycitin], the “FLuc inhibition (result in words)” value [1] is reported as “inactive; also recorded: did not show inhibition of FLuc at all”.

In the case of O=S(=O)(NCCNC/C=C/c1ccc(Br)cc1)c1cccc2cnccc12 [H-89], the IC50 [2] is given as 338 µM and the IC50 (RLuc) is given as 10 µM.

With COc1cc(O)c2c(=O)c(-c3ccc(O)cc3)coc2c1 [Prunetin, prunetin] the IC50 [1, 4] was 16.3 µM and the inhibition at 10 µM [1] was 40.7%.

For Oc1ccc(/C=C/c2cc(O)cc(O)c2)cc1 [Resveratrol, resveratrol], the IC50 (isolated FLuc) is given as 2 µM.

In the case of Oc1ccc([C@H]2COc3cc(O)ccc3C2)cc1 [S-Equol, S-equol], the “FLuc inhibition (result in words)” value [1] is reported as “inactive; also recorded: did not show inhibition of FLuc at all”.
